The values that follow come from patent publication US20240270741A1 (Cogent Biosciences, Inc., priority 2023, published 2024).

For the first test, the target named is FGFR2 (Homo sapiens, UniProt P21802). The test can be described thus: FGFR wild type enzyme assay (HTRF KinEASE-TK), FGFR2. To be noted: Enz FGFR2 (nM), FGFR2 wild type enzyme.
Sequence of FGFR2 (P21802 399-821 limits assumed): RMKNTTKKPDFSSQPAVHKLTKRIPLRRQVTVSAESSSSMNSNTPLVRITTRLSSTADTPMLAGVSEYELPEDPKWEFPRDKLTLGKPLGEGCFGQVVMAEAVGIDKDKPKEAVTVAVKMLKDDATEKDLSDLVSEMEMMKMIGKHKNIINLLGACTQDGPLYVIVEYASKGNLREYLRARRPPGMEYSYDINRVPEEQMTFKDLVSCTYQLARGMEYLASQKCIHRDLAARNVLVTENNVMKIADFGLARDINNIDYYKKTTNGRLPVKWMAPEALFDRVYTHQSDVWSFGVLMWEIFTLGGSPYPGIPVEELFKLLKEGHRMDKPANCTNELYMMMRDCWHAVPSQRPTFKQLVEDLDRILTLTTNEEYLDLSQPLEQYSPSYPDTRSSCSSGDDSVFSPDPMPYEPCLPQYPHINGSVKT
For `Cc1c(-c2cc(Sc3ccc(F)cn3)c3c(C#N)cnn3c2)cnn1[C@H]1CC[C@@](C)(N)CC1` [Example 291, 6-(1-((1s,4s)-4-amino-4-methylcyclohexyl)-5-methyl-1H-pyrazol-4-yl)-4-((5-fluoropyridin-2-yl)thio)pyrazolo[1,5-a]pyridine-3-carbonitrile], 3 nM corresponded to half-maximal inhibition (IC50). Same read-out and setting: next, `Cc1c(-c2cc(Sc3ncccc3F)c3c(C#N)cnn3c2)cnn1C1CCN(C(=O)C(C)(C)N(C)C)CC1` [Example 213, 6-(1-(1-(2-(dimethylamino)-2-methylpropanoyl)piperidin-4-yl)-5-methyl-1H-pyrazol-4-yl)-4-((3-fluoropyridin-2-yl)thio)pyrazolo[1,5-a]pyridine-3-carbonitrile]: 1.6 nM; `Cc1c(-c2cc(Sc3ncc(F)cc3F)c3c(C#N)cnn3c2)cnn1C1CCN(C)CC1` [Example 328, 4-((3,5-difluoropyridin-2-yl)thio)-6-(5-methyl-1-(1-methylpiperidin-4-yl)-1H-pyrazol-4-yl)pyrazolo[1,5-a]pyridine-3-carbonitrile]: 3 nM.

As for `Cc1c(-c2cc(Sc3ncccc3F)c3c(C#N)cnn3c2)cnn1[C@H]1CC[C@@H](NCC(=O)N(C)C)CC1` [Example 269, 2-(((1s,4s)-4-(4-(3-cyano-4-((3-fluoropyridin-2-yl)thio)pyrazolo[1,5-a]pyridin-6-yl)-5-methyl-1H-pyrazol-1-yl)cyclohexyl)amino)-N,N-dimethylacetamide], the IC50 – broadly, the concentration at which inhibition is half-maximal – worked out at 1 nM. Against the preceding compound, the IC50 is about 3-fold lower. Same read-out and setting: next, `Cc1c(-c2cc(Sc3ncccc3F)c3c(C#N)cnn3c2)cnn1[C@@H](C)C1CCN(C)CC1` [Example 160, (S)-4-((3-fluoropyridin-2-yl)thio)-6-(5-methyl-1-(1-(1-methylpiperidin-4-yl)ethyl)-1H-pyrazol-4-yl)pyrazolo[1,5-a]pyridine-3-carbonitrile]: 2 nM.

`CC(=O)N[C@H]1CC[C@H](n2ncc(-c3cc(Sc4ccccc4C#N)c4c(C#N)cnn4c3)c2C)CC1` [Example 272, N-((1r,4r)-4-(4-(3-cyano-4-((2-cyanophenyl)thio)pyrazolo [1,5-a]pyridin-6-yl)-5-methyl-1H-pyrazol-1-yl)cyclohexyl)acetamide] yielded an IC50 of 1 nM. The same measure, in the same setting: the result for `Cc1c(-c2cc(Sc3ccccc3C#N)c3c(C#N)cnn3c2)cnn1C1CCN(Cc2ncccn2)CC1` [Example 286, 4-((2-cyanophenyl)thio)-6-(5-methyl-1-(1-(pyrimidin-2-ylmethyl)piperidin-4-yl)-1H-pyrazol-4-yl)pyrazolo[1,5-a]pyridine-3-carbonitrile] reads 1 nM; that for `Cc1c(-c2cc(Sc3ncccc3F)c3c(C#N)cnn3c2)cnn1[C@H]1CCCN(S(C)(=O)=O)C1` [Example 165, (S)-4-((3-fluoropyridin-2-yl)thio)-6-(5-methyl-1-(1-(methylsulfonyl)piperidin-3-yl)-1H-pyrazol-4-yl)pyrazolo[1,5-a]pyridine-3-carbonitrile], 2 nM. Still for that read-out and setting: the result for `Cc1c(-c2cc(Sc3ccc(F)cn3)c3c(C#N)cnn3c2)cnn1[C@H]1CC[C@@H](O)CC1` [Example 290, 4-((5-fluoropyridin-2-yl)thio)-6-(1-((1s,4s)-4-hydroxycyclohexyl)-5-methyl-1H-pyrazol-4-yl)pyrazolo[1,5-a]pyridine-3-carbonitrile] reads 5 nM.

Staying with this test, now noted: Enz FGFR2 (nM), FGFR2 wild type enzyme assay.
With `CC(=O)N1CC[C@H](n2cc(-c3cc(Sc4ccccc4C#N)c4c(C#N)cnn4c3)cn2)[C@@H](O)C1` [Example 458, 6-(1-((3S,4S)-1-acetyl-3-hydroxypiperidin-4-yl)-1H-pyrazol-4-yl)-4-((2-cyanophenyl)thio)pyrazolo [1,5-a]pyridine-3-carbonitrile], the half-maximal inhibitory concentration (IC50) is 1 nM.

`COC(=O)N1[C@@H]2CC[C@H]1C[C@H](n1ncc(-c3cc(Sc4ccc(F)cc4C#N)c4c(C#N)cnn4c3)c1C)C2` [Example 365, methyl (1R,3s,5S)-3-(4-(3-cyano-4-((2-cyano-4-fluorophenyl)thio)pyrazolo [1,5-a]pyridin-6-yl)-5-methyl-1H-pyrazol-1-yl)-8-azabicyclo[3.2.1]octane-8-carboxylate]: the IC50 amounted to 2 nM. `N#Cc1ccccc1Sc1cc(-c2cnn([C@H]3CCC(=O)NC3)c2)cn2ncc(C#N)c12` [Example 623, (S)-4-((2-cyanophenyl)thio)-6-(1-(6-oxopiperidin-3-yl)-1H-pyrazol-4-yl)pyrazolo[1,5-a]pyridine-3-carbonitrile] gave an IC50 of 1 nM. As to `CC(=O)N1CCC[C@H](n2ncc(-c3cc(Sc4ccc(F)cc4C#N)c4c(C#N)cnn4c3)c2C)C1` [Example 334, (S)-6-(1-(1-acetylpiperidin-3-yl)-5-methyl-1H-pyrazol-4-yl)-4-((2-cyano-4-fluorophenyl)thio)pyrazolo [1,5-a]pyridine-3-carbonitrile], the midpoint of inhibition, the IC50, lay at 1 nM. Same read-out and setting: next, `C[C@H](O)Cn1cc(-c2cc(Sc3ccccc3C#N)c3c(C#N)cnn3c2)cn1` [Example 568, (S)-4-((2-cyanophenyl)thio)-6-(1-(2-hydroxypropyl)-1H-pyrazol-4-yl)pyrazolo[1,5-a]pyridine-3-carbonitrile]: 1 nM. On the same count and under the same terms, next, `N#Cc1ccccc1Sc1cc(-c2cnn(CC[C@H](O)CO)c2)cn2ncc(C#N)c12` [Example 668, (S)-4-((2-cyanophenyl)thio)-6-(1-(3,4-dihydroxybutyl)-1H-pyrazol-4-yl)pyrazolo[1,5-a]pyridine-3-carbonitrile]: 0.4 nM; `N#Cc1cnn2cc(-c3ccc(N4CCNCC4)nc3)cc(Sc3ncccc3F)c12` [Example 553, 4-((3-fluoropyridin-2-yl)thio)-6-(6-(piperazin-1-yl)pyridin-3-yl)pyrazolo[1,5-a]pyridine-3-carbonitrile]: 1 nM; `Cc1c(-c2cc(Sc3ccc(F)cc3C#N)c3c(C#N)cnn3c2)cnn1C1CCN(S(C)(=O)=O)CC1` [Example 403, 4-((2-cyano-4-fluorophenyl)thio)-6-(5-methyl-1-(1-(methylsulfonyl)piperidin-4-yl)-1H-pyrazol-4-yl)pyrazolo[1,5-a]pyridine-3-carbonitrile]: 2 nM. Still for that read-out and setting: the result for `N#Cc1ccccc1Sc1cc(-c2cnn(CC(=O)N3CC[C@@H](O)C3)c2)cn2ncc(C#N)c12` [Example 652, (R)-4-((2-cyanophenyl)thio)-6-(1-(2-(3-hydroxypyrrolidin-1-yl)-2-oxoethyl)-1H-pyrazol-4-yl)pyrazolo[1,5-a]pyridine-3-carbonitrile] reads 1 nM; that for `Cc1c(-c2cc(Sc3ccc(F)cc3C#N)c3c(C#N)cnn3c2)cnn1C1CCN(C(=O)CO)CC1` [Example 339, 4-((2-cyano-4-fluorophenyl)thio)-6-(1-(1-(2-hydroxyacetyl)piperidin-4-yl)-5-methyl-1H-pyrazol-4-yl)pyrazolo[1,5-a]pyridine-3-carbonitrile], 1 nM; that for `Cc1c(-c2cc(Sc3ccc(F)cc3C#N)c3c(C#N)cnn3c2)cnn1[C@H]1CCCN(C(=O)[C@@H](C)O)C1` [Example 512, 4-((2-cyano-4-fluorophenyl)thio)-6-(1-((S)-1-((R)-2-hydroxypropanoyl)piperidin-3-yl)-5-methyl-1H-pyrazol-4-yl)pyrazolo[1,5-a]pyridine-3-carbonitrile], 1 nM.

Take `N#Cc1ccccc1Sc1cc(-c2cnn(CC(=O)O)c2)cn2ncc(C#N)c12` [Example 573, 2-(4-(3-cyano-4-((2-cyanophenyl)thio)pyrazolo [1,5-a]pyridin-6-yl)-1H-pyrazol-1-yl)acetic acid]: the IC50 is 4 nM.
